Measurements as given in patent US20240216375A1, “USE OF S[…] AND/OR ALPHA 1-ADRENERGIC RECEPTOR INHIBITOR IN PREPARING MEDICINE FOR TREATING DRY EYES” (Eye Institute of Shandong First Medical University …, priority 2022, published 2024).

Legend:
Format in all cases: in vivo
[1] = test system: mice treated with scopolamine (dry eye model); test: Tear secretion (phenol red cotton thread) in scopolamine-induced dry eye model mice; settings: intraperitoneal injection 100 mg/kg once a day from 3rd day after modeling for 4 days, observed 5 and 7 days, vs normal saline
mice with diabetes = test: Tear secretion in mice with diabetes (STZ type 1 diabetes model, diabetes-associated dry eye); settings: intraperitoneal injection 100 mg/kg once a day for 4 days, observed 5 and 7 days, vs normal saline
Procedure: A phenol red cotton thread was used to detect the tear production of mice. One end of the phenol red cotton thread was placed at an inner ⅓ of the conjunctival sac of the lower eyelid, after 20 s, the phenol red cotton thread was taken out, and the length of the cotton thread wetted with tears was measured. The result was shown in FIG. 1 (tear secretion after modeling of mice treated with scopolamine).
Male C57BL/6 mice were selected, a type 1 diabetes model was established by intraperitoneal injection of streptozotocin (STZ) (the establishment method refers to the prior art: Lingling, Yang, Guohu, Di, Xia, & Qi, et al. Substance p promotes diabetic corneal epithelial wound healing through molecular mechanisms mediated via the neurokinin-1 receptor. Diabetes. 2014; 63: 4262-4274.), and the mice with blood glucose value greater than 300 mg/dL were screened for experiments after 1 month. The mice not treated and fed under a normal condition were used as a control, and the experimental mice had no corneal defects and neovascularization or conjunctival damage. The result was shown in FIG. 11 (tear secretion and ocular surface inflammation after modeling of mice with diabetes, tear secretion (left) and ocular surface inflammation (right)). […]

[2] = test system: mice treated with scopolamine (dry eye model); test: Expression levels of inflammatory factors of the lacrimal gland by qPCR in scopolamine-induced dry eye model mice; settings: intraperitoneal injection 100 mg/kg, 7th day of treatment
Procedure: (§1) Female C57BL/6 mice were selected for the experiment and placed in a perforated cage with a constant fan flow and a humidity <20%. The modeled mice with dry eye were induced by subcutaneous injection of scopolamine (0.5 mg/0.2 ml, 3 times a day) for 7 consecutive days (refer to the following literature: Wu Y, Bu J, Yang Y, et al. Therapeutic effect of MK2 inhibitor on experimental murine dry eye. Invest Ophthalmol Vis Sci. 2017; 58:4898-4907), the mice not treated and fed under a normal condition were used as a control, and the experimental mice had no corneal defects and neovascularization or conjunctival damage.
After 7 days of modeling, the lacrimal glands and the corneas of the mice were taken to extract mRNA. Expression levels of inflammatory factors TNFα, TGFβ1, and IL-1β were detected by qPCR. The result was shown in FIG. 3 (expression levels of inflammatory factors of the lacrimal glands (left) and the corneas (right) 7 days after modeling of mice treated with scopolamine).
After 7 days of the treatment, staining by sodium fluorescein was used to observe damage of a corneal epithelial barrier function. The lacrimal glands of the mice were taken for qPCR detection.
On the 7th day of the treatment, staining by sodium fluorescein was used to observe damage of a corneal epithelial barrier function. The lacrimal glands of the mice were taken for qPCR detection.

[3] = test system: mice treated with scopolamine (dry eye model); test: Corneal staining by fluorescein sodium in scopolamine-induced dry eye model mice; settings: intraperitoneal injection 100 mg/kg, 7th day of treatment
Procedure: as §1
Staining by fluorescein sodium was used to observe damage of a corneal epithelial barrier function, observation was performed with a slit lamp, and photographing was performed. The result was shown in FIG. 2 (corneal staining by fluorescein sodium 7 days after modeling of mice treated with scopolamine). Compared with the mice in the control group, the mice in the scopolamine group were positive in staining by fluorescein sodium in scopolamine 7 days after modeling.
After 7 days of the treatment, staining by sodium fluorescein was used to observe damage of a corneal epithelial barrier function. The lacrimal glands of the mice were taken for qPCR detection. […]

Question: `NCCc1cc(O)c(O)cc1O` [6-hydroxydopamine] was tested. Which tear secretion [1] did it give?
Answer: The tear secretion was “significantly increase the tear secretion”.

Question: And the tear secretion (mice with diabetes)?
Answer: Its tear secretion is “significantly increase the tear secretion”.

Question: And the “expression levels of inflammatory factors TNFα and TGFβ1 of the lacrimal gland” value [2]?
Answer: The value was “decrease expression levels of inflammatory factors TNFα and TGFβ1”.

Question: What about the “staining of ocular surface by fluorescein sodium” value [3] of the same compound?
Answer: The value was “reduce staining of an ocular surface by fluorescein sodium”.
